In patent US9708286B2, “Ingenol-3-acylates III and ingenol-3-carbamates” (LEO Laboratories Limited, priority 2010, dated 2017):

Experiments:
Format in all cases: cell-based
[1] = system: Primary human epidermal keratinocytes, HeKa; test: HeKa cytokine release (IL-8); conditions: Homo sapiens, HEKa, 6 h, read-out: HeKa cytokine release (IL-8) Rel EC50 range
Procedure, shortened: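 Seeded cells exposed to compound dilutions for 6 h at 37° C; IL-8 in supernatant quantified by MSD sandwich electrochemiluminescence immunoassay. Effects normalized to positive control (1.5×10^−7 M PEP0005), four-parameter sigmoidal fit; Rel EC50 is concentration midway between fitted top and bottom.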

[2] = system: PMN's (polymorphonuclear leukocytes); test: Neutrophil oxidative burst; conditions: Leukocyte, 40 min, read-out: Neutrophil oxidative burst Rel EC50 range, PMN from buffy coats, 40 min at RT, hydroethidine fluorescence; normalized to 5×10^−7 M PEP0005
Procedure, shortened: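 Human buffy-coat neutrophils (2.5×10^5/well) in HBSS with 0.1% BSA, 5 mM glucose treated with compound premixed with 10 μM hydroethidine for 40 min at RT; fluorescence read at 485/579 nm. Normalized to 5×10^−7 M PEP0005; Rel EC50 is midway between fitted top and bottom, Abs EC50 gives 50% of PEP0005 maximum.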

HeLa cells = test: Necrosis assay; conditions: Homo sapiens, HeLa, 0.5 h, read-out: HeLa necrosis EC50 range
Procedure, shortened: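 HeLa cells treated with compound at 10 μM to 400 μM (final) for 30 min at 37° C., viability then measured by PrestoBlue fluorescence (ex 535/em 630 nm). Normalized to 1% DMSO and 400 μM ingenol mebutate controls; AbsEC50 from four-parameter sigmoidal fit.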

SMILES	EC50 [1] [nM]	EC50 [2] [nM]	EC50 (HeLa cells) [nM]
CC1=C[C@]23C(=O)[C@@H](C=C(CO)[C@@H](O)[C@]2(O)[C@H]1OC(=O)c1c(-c2ccccc2)nn(C)c1C)[C@H]1[C@@H](C[C@H]3C)C1(C)C [Compound 559, Ingenol 3-(1,5-dimethyl-3-phenyl-pyrazole-4-carboxylate)]	< 20	< 20	150000 to 350000
CC1=C[C@]23C(=O)[C@@H](C=C(CO)[C@@H](O)[C@]2(O)[C@H]1OC(=O)c1c(C)nn(Cc2ccccc2)c1C)[C@H]1[C@@H](C[C@H]3C)C1(C)C [Compound 560, Ingenol 3-(1-benzyl-3,5-dimethyl-pyrazole-4-carboxylate)]	< 20	< 20	< 150000
CC1=C[C@]23C(=O)[C@@H](C=C(CO)[C@@H](O)[C@]2(O)[C@H]1OC(=O)c1c2c(nn1C)CCCC2)[C@H]1[C@@H](C[C@H]3C)C1(C)C [Compound 563, Ingenol 3-(2-methyl-4,5,6,7-tetrahydroindazole-3-carboxylate)]	< 20	< 20	< 150000
CC1=C[C@]23C(=O)[C@@H](C=C(CO)[C@@H](O)[C@]2(O)[C@H]1OC(=O)c1c(C)n(C)c2ccccc12)[C@H]1[C@@H](C[C@H]3C)C1(C)C [Compound 564, Ingenol 3-(1,2-dimethylindole-3-carboxylate)]	< 20	< 20	< 150000
COc1ccc2c(c1)c(C(=O)O[C@H]1C(C)=C[C@]34C(=O)[C@@H](C=C(CO)[C@@H](O)[C@]13O)[C@H]1[C@@H](C[C@H]4C)C1(C)C)c(C)n2C [Compound 565, Ingenol 3-(5-methoxy-1,2-dimethyl-indole-3-carboxylate)]	< 20	< 20	< 150000
CC1=C[C@]23C(=O)[C@@H](C=C(CO)[C@@H](O)[C@]2(O)[C@H]1OC(=O)c1c(C)nn(C)c1C)[C@H]1[C@@H](C[C@H]3C)C1(C)C [Compound 566, Ingenol 3-(1,3,5-trimethylpyrazole-4-carboxylate)]	20 to 100	20 to 100	> 350000
CC1=C[C@]23C(=O)[C@@H](C=C(CO)[C@@H](O)[C@]2(O)[C@H]1OC(=O)c1nonc1C)[C@H]1[C@@H](C[C@H]3C)C1(C)C [Compound 567, Ingenol 3-(4-methyl-1,2,5-oxadiazole-3-carboxylate)]	> 100	20 to 100	> 350000
COc1nc(C)c(C(=O)O[C@H]2C(C)=C[C@]34C(=O)[C@@H](C=C(CO)[C@@H](O)[C@]23O)[C@H]2[C@@H](C[C@H]4C)C2(C)C)s1 [Compound 568, Ingenol 3-(2-methoxy-4-methyl-thiazole-5-carboxylate)]	20 to 100	20 to 100	150000 to 350000
CC1=C[C@]23C(=O)[C@@H](C=C(CO)[C@@H](O)[C@]2(O)[C@H]1OC(=O)c1nn(C)cc1Br)[C@H]1[C@@H](C[C@H]3C)C1(C)C [Compound 570, Ingenol 3-(4-bromo-1-methyl-pyrazole-3-carboxylate)]	> 100	20 to 100	150000 to 350000
CC1=C[C@]23C(=O)[C@@H](C=C(CO)[C@@H](O)[C@]2(O)[C@H]1OC(=O)c1c(C)c2ccccc2n1C)[C@H]1[C@@H](C[C@H]3C)C1(C)C [Compound 571, Ingenol 3-(1,3-dimethylindole-2-carboxylate)]	< 20	< 20	< 150000
COc1ccc2c(c1)c(C)c(C(=O)O[C@H]1C(C)=C[C@]34C(=O)[C@@H](C=C(CO)[C@@H](O)[C@]13O)[C@H]1[C@@H](C[C@H]4C)C1(C)C)n2C [Compound 572, Ingenol 3-(5-methoxy-1,3-dimethyl-indole-2-carboxylate)]	< 20	< 20	< 150000
CC1=C[C@]23C(=O)[C@@H](C=C(CO)[C@@H](O)[C@]2(O)[C@H]1OC(=O)c1c(-c2ccccc2)c2ccccc2n1C)[C@H]1[C@@H](C[C@H]3C)C1(C)C [Compound 574, Ingenol 3-(1-methyl-3-phenyl-indole-2-carboxylate)]	< 20	< 20	< 150000
CC1=C[C@]23C(=O)[C@@H](C=C(CO)[C@@H](O)[C@]2(O)[C@H]1OC(=O)c1c(C)noc1C(F)(F)F)[C@H]1[C@@H](C[C@H]3C)C1(C)C [Compound 575, Ingenol 3-(3-methyl-5-(trifluoromethyl)isoxazole-4-carboxylate)]	< 20	< 20	< 150000
CC1=C[C@]23C(=O)[C@@H](C=C(CO)[C@@H](O)[C@]2(O)[C@H]1OC(=O)c1c(C)ccn1C)[C@H]1[C@@H](C[C@H]3C)C1(C)C [Compound 576, Ingenol 3-(1,3-dimethylpyrrole-2-carboxylate)]	< 20	< 20	< 150000
CC1=C[C@]23C(=O)[C@@H](C=C(CO)[C@@H](O)[C@]2(O)[C@H]1OC(=O)c1c(C)nn(CC(F)(F)F)c1C)[C@H]1[C@@H](C[C@H]3C)C1(C)C [Compound 577, Ingenol 3-(3,5-dimethyl-1-(2,2,2-trifluoroethyl)pyrazole-4-carboxylate)]	< 20	20 to 100	150000 to 350000
CC1=C[C@]23C(=O)[C@@H](C=C(CO)[C@@H](O)[C@]2(O)[C@H]1OC(=O)c1cc(C)n(C2CC2)c1C)[C@H]1[C@@H](C[C@H]3C)C1(C)C [Compound 578, Ingenol 3-(1-cyclopropyl-2,5-dimethyl-pyrrole-3-carboxylate)]	< 20	< 20	< 150000
CC1=C[C@]23C(=O)[C@@H](C=C(CO)[C@@H](O)[C@]2(O)[C@H]1OC(=O)c1cc(C)n(C)c1C)[C@H]1[C@@H](C[C@H]3C)C1(C)C [Compound 579, Ingenol 3-(1,2,5-trimethylpyrrole-3-carboxylate)]	< 20	< 20	150000 to 350000
CC1=C[C@]23C(=O)[C@@H](C=C(CO)[C@@H](O)[C@]2(O)[C@H]1OC(=O)c1c(C)c[nH]c1C)[C@H]1[C@@H](C[C@H]3C)C1(C)C [Compound 580, Ingenol 3-(2,4-dimethyl-1H-pyrrole-3-carboxylate)]	> 100	> 100	150000 to 350000
CC1=C[C@]23C(=O)[C@@H](C=C(CO)[C@@H](O)[C@]2(O)[C@H]1OC(=O)c1cccn1C)[C@H]1[C@@H](C[C@H]3C)C1(C)C [Compound 581, Ingenol 3-(1-methylpyrrole-2-carboxylate)]	< 20	< 20	150000 to 350000
CC1=C[C@]23C(=O)[C@@H](C=C(CO)[C@@H](O)[C@]2(O)[C@H]1OC(=O)c1cc(C)c[nH]1)[C@H]1[C@@H](C[C@H]3C)C1(C)C [Compound 582, Ingenol 3-(4-methyl-1H-pyrrole-2-carboxylate)]	< 20	< 20	150000 to 350000
CC1=C[C@]23C(=O)[C@@H](C=C(CO)[C@@H](O)[C@]2(O)[C@H]1OC(=O)c1ccc(C)n1C)[C@H]1[C@@H](C[C@H]3C)C1(C)C [Compound 583, Ingenol 3-(1,5-dimethylpyrrole-2-carboxylate)]	< 20	< 20	150000 to 350000
